Source: paper PMC10215400 (Antibiotics, 2023)

Legend:
[1] = biological target: T1, KPC-2 β-lactamase D179Y variant (Klebsiella pneumoniae, UniProt Q93LQ9, D178Y); type: binding
[2] = biological target: T2, KPC-2 β-lactamase D179N variant (Klebsiella pneumoniae, UniProt Q93LQ9, D178N); assay: time-based mass spectrometry ([…]); type: binding
[3] = biological target: T2, KPC-2 β-lactamase D179N variant; assay: stopped-flow hydrolysis progress curves with purified enzyme; timed mass spectrometry; type: biochemical
[4] = biological target: T1, KPC-2 β-lactamase D179Y variant; assay: time-based mass spectrometry of acyl-complex ([…]); no turnover in stopped-flow; type: binding
[5] = biological target: KPC-2 β-lactamase (Klebsiella pneumoniae, UniProt Q93LQ9); assay: stopped-flow hydrolysis progress curves with purified enzyme; type: biochemical
Chain of KPC-2 β-lactamase (Q93LQ9 25-293 limits assumed): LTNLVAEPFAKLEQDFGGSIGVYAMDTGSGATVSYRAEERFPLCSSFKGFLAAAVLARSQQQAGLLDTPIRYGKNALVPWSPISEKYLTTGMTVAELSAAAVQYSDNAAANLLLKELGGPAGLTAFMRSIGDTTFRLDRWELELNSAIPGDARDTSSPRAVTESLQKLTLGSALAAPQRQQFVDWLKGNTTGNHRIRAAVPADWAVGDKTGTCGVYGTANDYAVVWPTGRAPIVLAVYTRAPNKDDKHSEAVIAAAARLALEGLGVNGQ

T1 sequence (Q93LQ9 25-293 D178Y): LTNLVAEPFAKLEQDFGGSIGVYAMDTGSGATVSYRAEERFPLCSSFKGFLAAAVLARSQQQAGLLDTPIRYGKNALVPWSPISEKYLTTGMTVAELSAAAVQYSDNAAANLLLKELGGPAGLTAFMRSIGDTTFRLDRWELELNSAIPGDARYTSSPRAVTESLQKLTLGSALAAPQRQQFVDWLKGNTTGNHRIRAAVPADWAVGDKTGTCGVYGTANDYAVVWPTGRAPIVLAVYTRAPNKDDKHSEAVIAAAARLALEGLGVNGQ
T2 sequence (Q93LQ9 25-293 D178N): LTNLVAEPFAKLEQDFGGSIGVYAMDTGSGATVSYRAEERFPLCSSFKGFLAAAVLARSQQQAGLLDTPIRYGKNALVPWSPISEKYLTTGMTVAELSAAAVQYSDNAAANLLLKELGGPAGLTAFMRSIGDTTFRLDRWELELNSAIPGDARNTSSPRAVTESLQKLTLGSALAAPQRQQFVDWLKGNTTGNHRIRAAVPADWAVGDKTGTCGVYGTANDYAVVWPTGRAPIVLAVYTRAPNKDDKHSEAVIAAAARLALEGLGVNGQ

Row | SMILES | time-based mass spectrometry of acyl-complex (1:1) [1] | time-based mass spectrometry (1:1) [2] | stopped-flow hydrolysis progress curves with purified enzyme; timed mass spectro [3] | time-based mass spectrometry of acyl-complex (1:1); no turnover in stopped-flow [4] | stopped-flow hydrolysis progress curves with purified enzyme [5]
1 | NC(=O)[C@@H]1CC[C@@H]2CN1C(=O)N2OS(=O)(=O)O [avibactam] | relebactam is slower to form an acyl complex with the D179Y variant compared to avibactam | Relebactam and avibactam behaved similarly vs. the D179N variant. |  |  | 
2 | C[C@@H](O)[C@H]1C(=O)N2C(C(=O)O)=C(SCCN=CN)C[C@H]12 [imipenem] |  |  | KPC-2 (blue line) and the D179N variant (yellow line) both hydrolyzed imipenem | acyl-complexes with imipenem and ceftazidime with the D179N variant was captured less often compared to the D179Y variant | KPC-2 (blue line) and the D179N variant (yellow line) both hydrolyzed imipenem
3 | O=C(NC1CCNCC1)[C@@H]1CC[C@@H]2CN1C(=O)N2OS(=O)(=O)O [relebactam] | relebactam is slower to form an acyl complex with the D179Y variant compared to avibactam |  |  |  | 
